Measured values: patent US20240226109A1, “CO-THERAPY WITH VECTOR AND NICOTINIC AGONIST” (OYSTER POINT PHARMA, INC., priority 2021, published 2024)

Legend:
nAChR subtype alpha7 = molecular target: T1, nAChR subtype alpha7 (Homo sapiens, UniProt P36544); assay: nAChR agonist response (evoked current compared with ACh response) in cells expressing a nAChR subtype; assay type: cell-based; conditions: for agonist characterization at nAChR subtype alpha7: response relative to ACh response
T1 construct: expressed in transfected cells
Source text: (§1) In general, a nAChR agonist is a full agonist if it evokes a response upon binding to a given receptor that is equal or greater to that of ACh.
(§2) nAChR agonist response, from which receptor activation can be determined can, for example, be generated using an appropriate cell-based assay. Cells designed to express a particular nAChR receptor subtype and generate an electrical current response when bound to and activated by a nAChR agonist can be used to characterize the agonist profile of a compound and the amount of receptor activation thus determined. An example of a generic protocol is described below.
(§3) Cells that express a particular human nAChR subtype are first exposed to ACh. ACh binds and activates the receptor, thereby evoking a current. […] This current is recorded as the ACh response and serves as the 100% nAChR agonist response and to which responses to other nAChR agonists are compared. After washing, the cells are exposed to a nAChR agonist at various concentrations (e.g., 0.1, 0.3, 1, 3, 10, 30, 100, and 300 micromolar). The current evoked by exposure to the nAChR agonist is measured and recorded for each nAChR concentration. This nAChR agonist response data is then normalized to unity versus the maximal ACh evoked current and plotted as a function of the logarithm of the nAChR agonist concentration. The nAChR agonist response is then calculated as a percentage of the ACh response.
(§4) A nAChR agonist evoking a response equal to or greater than the maximum ACh response determined at the same receptor type is a full agonist. In some cases, a nAChR agonist evoking a response of less than 100% of the ACh response may still be characterized a full agonist, taking into account experimental variability. […] In some cases, a nAChR agonist evoking 90% of the ACh response or greater is considered a full agonist. […] In some cases, a nAChR agonist evoking 80% of the ACh response or greater is considered a full agonist.

tear film [1] = assay: Mesoscale discovery (MSD) assay of hNGFβ in porcine tears after lacrimal gland transduction; assay type: in vivo, pigs (Sus scrofa domesticus); conditions: pigs given AAV9-hNGFβ; Day 28 (0.03 mg varenicline solution each nostril) vs Day 21 and Day 35 (no nasal spray); data not shown
[2] = molecular target: T2, nAChR subtype alpha3beta4 (Homo sapiens, UniProt P30926+P32297); assay: nAChR agonist response (evoked current compared with ACh response) in cells expressing a nAChR subtype; assay type: cell-based; conditions: response relative to ACh response
T2 construct: expressed in transfected cells
Source text: as §1, §2, §3, §4

[3] = test system: T3, nAChR subtype alpha3alpha5beta4 (Homo sapiens); assay: as above; assay type: cell-based; conditions: response relative to ACh response
T3 construct: expressed in transfected cells
Source text: as §1, §2, §3, §4

[4] = molecular target: T4, nAChR subtype alpha4beta2 (Homo sapiens, UniProt P17787+P43681); assay: as above; assay type: cell-based; conditions: response relative to ACh response
T4 construct: expressed in transfected cells
Source text: as §1, §2, §3, §4

[5] = molecular target: T5, nAChR subtype alpha4alpha6beta2 (Homo sapiens, UniProt P17787+P43681+Q15825); assay: as above; assay type: cell-based; conditions: response relative to ACh response
T5 construct: expressed in transfected cells
Source text: as §1, §2, §3, §4

[6] = molecular target: T6, nAChR subtype alpha6beta2 (Homo sapiens, UniProt P17787+Q15825); assay: as above; assay type: cell-based; conditions: response relative to ACh response
T6 construct: expressed in transfected cells
Source text: as §1, §2
(§5) Cells that express a particular human nAChR subtype are first exposed to ACh. ACh binds and activates the receptor, thereby evoking a current. The concentration of the ACh is chosen to elicit the maximum response of the receptor (e.g., 1280 micromolar ACh). This current is recorded as the ACh response and serves as the 100% nAChR agonist response and to which responses to other nAChR agonists are compared. […] The current evoked by exposure to the nAChR agonist is measured and recorded for each nAChR concentration. […] The nAChR agonist response is then calculated as a percentage of the ACh response.
(§6) A nAChR agonist evoking a response equal to or greater than the maximum ACh response determined at the same receptor type is a full agonist. […]

tear film [7] = assay: hNGF concentration in tear film collected on Schirmer test strips (ELISA), with and without intranasal varenicline; assay type: in vivo, Dutch-Belted rabbits; conditions: rabbits given rAAV9.hNGF intralacrimally; intranasal varenicline on days 21, 28 and 41
Method: FIG. 8 is a plot showing the concentration of hNGF in tear film in animals treated with AAV.hNGF and varenicline. Protein concentration was measured using Schirmer tear strips to collect tear film from Dutch-belted rabbits at the indicated number of days following intralacrimal administration of AAV2.hNGF, AAV5.hNGF, or AAV9.hNGF. At days 21, 28, and 41, tear film was collected following the intranasal administration of the tear inducing agent, varenicline. Control animals had no injection of AAV.
A Schirmer tear test was performed to collect eye moisture from the animals on Days 7, 14, 21, 28, 41, and 42. Test strips were placed inside the lower eyelid for approximately 1 minute. The paper was removed and placed into separate tubes and frozen at −80° C. for subsequent analysis. Schirmer test strips were collected following intranasal administration of varenicline on Days 21, 28, and 41. Test strips were placed inside the lower eyelid for approximately 1 minute. The paper was removed and placed into separate tubes and frozen at −80° ° C. for subsequent analysis. Protein content absorbed onto Schirmer's test strips was analyzed for concentration of hNGF by ELISA assay.
A Schirmer tear test was performed to collect eye moisture from the animals on Days 7, 14, 21, 28, 41, and 42. […] Protein content absorbed onto Schirmer's test strips was analyzed for concentration of hNGF by ELISA assay.

[8] = molecular target: T7, nAChR subtype alpha3beta2 (Homo sapiens, UniProt P17787+P32297); assay: nAChR agonist response (evoked current compared with ACh response) in cells expressing a nAChR subtype; assay type: cell-based; conditions: response relative to ACh response
T7 construct: expressed in transfected cells
Source text: as §1, §2, §5, §6

subjects with dry eye = conditions: 28-day course of 0.1% ophthalmic formulation, Phase II; cited from earlier work

T1 sequence (P36544 23-502): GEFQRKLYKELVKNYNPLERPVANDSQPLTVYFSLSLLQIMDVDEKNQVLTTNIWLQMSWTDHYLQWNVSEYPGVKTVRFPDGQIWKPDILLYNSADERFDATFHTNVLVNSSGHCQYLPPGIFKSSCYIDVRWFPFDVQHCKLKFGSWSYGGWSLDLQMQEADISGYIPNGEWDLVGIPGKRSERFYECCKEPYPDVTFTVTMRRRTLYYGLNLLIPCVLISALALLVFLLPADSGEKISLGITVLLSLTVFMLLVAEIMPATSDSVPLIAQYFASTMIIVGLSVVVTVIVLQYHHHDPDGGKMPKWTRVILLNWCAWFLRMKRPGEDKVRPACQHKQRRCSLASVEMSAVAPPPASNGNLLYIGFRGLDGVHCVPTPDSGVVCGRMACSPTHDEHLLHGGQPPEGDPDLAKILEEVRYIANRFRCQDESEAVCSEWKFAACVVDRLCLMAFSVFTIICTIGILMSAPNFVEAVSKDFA
T4 sequence (P43681 29-627 limits assumed): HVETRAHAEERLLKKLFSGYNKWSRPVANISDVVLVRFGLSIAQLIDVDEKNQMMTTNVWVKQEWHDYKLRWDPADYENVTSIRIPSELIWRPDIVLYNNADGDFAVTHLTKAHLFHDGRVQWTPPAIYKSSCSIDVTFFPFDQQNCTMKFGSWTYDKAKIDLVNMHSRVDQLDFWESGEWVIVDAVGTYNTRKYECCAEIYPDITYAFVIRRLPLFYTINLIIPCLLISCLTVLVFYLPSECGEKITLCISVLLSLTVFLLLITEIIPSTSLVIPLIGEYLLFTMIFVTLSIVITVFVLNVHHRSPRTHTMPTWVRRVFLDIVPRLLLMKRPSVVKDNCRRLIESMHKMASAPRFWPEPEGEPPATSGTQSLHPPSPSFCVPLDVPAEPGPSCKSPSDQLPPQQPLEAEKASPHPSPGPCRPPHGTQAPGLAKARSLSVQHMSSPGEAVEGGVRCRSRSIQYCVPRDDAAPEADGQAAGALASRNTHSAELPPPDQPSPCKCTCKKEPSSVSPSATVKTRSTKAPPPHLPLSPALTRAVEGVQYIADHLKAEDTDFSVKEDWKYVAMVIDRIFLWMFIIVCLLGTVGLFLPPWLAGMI
T4 sequence (P17787 26-502): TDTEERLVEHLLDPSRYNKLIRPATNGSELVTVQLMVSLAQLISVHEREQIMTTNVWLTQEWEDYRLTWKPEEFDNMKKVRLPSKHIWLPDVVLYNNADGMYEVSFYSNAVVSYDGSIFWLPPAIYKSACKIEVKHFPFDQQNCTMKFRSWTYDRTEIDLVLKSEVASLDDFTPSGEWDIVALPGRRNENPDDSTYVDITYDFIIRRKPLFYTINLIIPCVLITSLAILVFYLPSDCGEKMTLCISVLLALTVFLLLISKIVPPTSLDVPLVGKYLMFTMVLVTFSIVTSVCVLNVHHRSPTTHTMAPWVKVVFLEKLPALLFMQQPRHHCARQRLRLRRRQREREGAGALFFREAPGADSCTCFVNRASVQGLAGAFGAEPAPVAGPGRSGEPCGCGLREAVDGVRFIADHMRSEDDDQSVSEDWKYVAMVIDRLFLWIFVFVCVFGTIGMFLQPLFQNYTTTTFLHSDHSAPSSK
T5 sequence (P43681 29-627 limits assumed): as the sequence (P43681 29-627 limits assumed) above
T5 sequence (Q15825 26-494): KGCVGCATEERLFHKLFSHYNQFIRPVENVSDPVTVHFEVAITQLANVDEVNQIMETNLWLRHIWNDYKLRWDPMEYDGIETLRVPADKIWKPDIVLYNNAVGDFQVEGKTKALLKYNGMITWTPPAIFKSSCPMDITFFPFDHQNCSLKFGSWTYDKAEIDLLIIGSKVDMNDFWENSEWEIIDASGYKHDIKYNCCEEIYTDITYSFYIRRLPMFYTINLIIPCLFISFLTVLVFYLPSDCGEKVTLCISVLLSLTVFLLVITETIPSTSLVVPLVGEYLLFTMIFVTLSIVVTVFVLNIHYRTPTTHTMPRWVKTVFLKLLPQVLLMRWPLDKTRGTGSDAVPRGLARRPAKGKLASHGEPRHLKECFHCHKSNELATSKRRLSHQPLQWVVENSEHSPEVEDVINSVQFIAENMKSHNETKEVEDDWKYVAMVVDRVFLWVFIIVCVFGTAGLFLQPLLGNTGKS
T5 sequence (P17787 26-502): as the sequence (P17787 26-502) above
T2 sequence (P32297 32-505): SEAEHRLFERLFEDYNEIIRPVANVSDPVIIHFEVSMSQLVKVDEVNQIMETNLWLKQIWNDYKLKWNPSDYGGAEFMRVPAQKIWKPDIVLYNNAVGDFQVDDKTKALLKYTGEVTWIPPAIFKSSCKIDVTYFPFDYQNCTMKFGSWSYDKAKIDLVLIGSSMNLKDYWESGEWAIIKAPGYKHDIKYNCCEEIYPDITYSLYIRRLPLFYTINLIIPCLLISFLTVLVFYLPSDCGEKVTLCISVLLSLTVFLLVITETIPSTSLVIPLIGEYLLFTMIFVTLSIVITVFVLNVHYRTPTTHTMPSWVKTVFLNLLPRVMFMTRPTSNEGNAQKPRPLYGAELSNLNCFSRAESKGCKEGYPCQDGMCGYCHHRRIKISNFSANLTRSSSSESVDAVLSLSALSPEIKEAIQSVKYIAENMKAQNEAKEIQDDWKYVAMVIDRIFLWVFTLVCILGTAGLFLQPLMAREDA
T2 sequence (P30926 22-498): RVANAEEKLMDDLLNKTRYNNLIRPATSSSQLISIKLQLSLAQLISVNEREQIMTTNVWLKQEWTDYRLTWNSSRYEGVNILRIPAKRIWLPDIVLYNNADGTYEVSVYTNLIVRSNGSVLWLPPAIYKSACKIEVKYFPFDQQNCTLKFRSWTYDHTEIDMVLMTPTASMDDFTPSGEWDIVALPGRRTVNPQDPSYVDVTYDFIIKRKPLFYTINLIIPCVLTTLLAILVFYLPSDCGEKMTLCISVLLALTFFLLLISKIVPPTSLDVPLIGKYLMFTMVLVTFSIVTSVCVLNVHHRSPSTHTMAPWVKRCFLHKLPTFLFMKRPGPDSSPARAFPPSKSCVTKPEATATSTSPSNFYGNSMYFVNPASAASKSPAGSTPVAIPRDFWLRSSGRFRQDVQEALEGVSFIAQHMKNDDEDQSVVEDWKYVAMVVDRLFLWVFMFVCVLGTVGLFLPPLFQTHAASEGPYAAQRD
T3 sequence (P32297 32-505): as the sequence (P32297 32-505) above
T3 sequence (P30532 23-468 partner): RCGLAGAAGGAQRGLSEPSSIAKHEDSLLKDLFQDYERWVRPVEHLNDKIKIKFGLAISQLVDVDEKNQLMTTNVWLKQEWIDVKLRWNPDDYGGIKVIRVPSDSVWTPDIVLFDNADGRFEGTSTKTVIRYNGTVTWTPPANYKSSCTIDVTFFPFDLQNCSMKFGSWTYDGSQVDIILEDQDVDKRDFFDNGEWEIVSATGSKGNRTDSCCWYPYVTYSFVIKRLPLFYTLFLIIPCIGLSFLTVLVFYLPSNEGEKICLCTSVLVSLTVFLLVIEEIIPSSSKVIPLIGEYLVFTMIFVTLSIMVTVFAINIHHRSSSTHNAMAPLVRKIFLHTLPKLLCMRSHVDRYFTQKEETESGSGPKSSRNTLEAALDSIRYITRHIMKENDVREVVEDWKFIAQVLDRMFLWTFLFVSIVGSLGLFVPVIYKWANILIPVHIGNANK
T3 sequence (P30926 22-498, further chain): as the sequence (P30926 22-498) above
T7 sequence (P32297 32-505): as the sequence (P32297 32-505) above
T7 sequence (P17787 26-502): as the sequence (P17787 26-502) above
T6 sequence (Q15825 26-494): as the sequence (Q15825 26-494) above
T6 sequence (P17787 26-502): as the sequence (P17787 26-502) above

Compound: C(=C\[C@H]1CCNC1)/c1cncnc1.O=C(O)CC(O)(CC(=O)O)C(=O)O [compound 1 citrate, (R)-5-((E)-2-pyrrolidin-3-ylvinyl)pyrimidine mono-citrate]
- percent of the maximal ACh-evoked current (nAChR subtype alpha7; 300 micromolar concentration, subtype alpha7): 25%

Compound: O=C(O)C(O)C(O)C(=O)O.c1cnc2cc3c(cc2n1)C1CNCC3C1 [Varenicline, varenicline]
- effect of nasal spray on tear hNGFβ protein concentration (tear film [1]): increased tear hNGFβ protein concentration
- agonist characterization at nAChR subtype alpha3beta4 [2]: partial agonist
- agonist characterization at nAChR subtype alpha3alpha5beta4 [3]: partial agonist
- agonist characterization at nAChR subtype alpha4beta2 [4]: partial agonist
- agonist characterization at nAChR subtype alpha4alpha6beta2 [5]: partial agonist
- agonist characterization at nAChR subtype alpha7 (nAChR subtype alpha7): full agonist
- agonist characterization at nAChR subtype alpha6beta2 [6]: partial agonist
- increase of hNGF concentration in the Schirmer strip over the levels measured at the 7 and 14 day collections (tear film [7]): up to 3 fold

Compound: C(=C\[C@H]1CCNC1)/c1cncnc1 [Compound 1, (R)-5-((E)-2-pyrrolidin-3-ylvinyl)pyrimidine]
- agonist characterization at nAChR subtype alpha3beta4 [2]: full agonist
- agonist characterization at nAChR subtype alpha3alpha5beta4 [3]: full agonist
- agonist characterization at nAChR subtype alpha4beta2 [4]: full agonist
- agonist characterization at nAChR subtype alpha4alpha6beta2 [5]: full agonist
- agonist characterization at nAChR subtype alpha7 (nAChR subtype alpha7): weak partial agonist
- agonist characterization at nAChR subtype alpha3beta2 [8]: partial agonist

Compound: Tβ4: 43-amino acid peptide, SEQ ID NO: 26; tested as 0.1% Tβ4 ophthalmic formulation (SDKPDMAEIEKFDKSKLKKTETQEKNPLPSKETIEQEKQAGES; listed as Homo sapiens)
- effect on corneal staining (subjects with dry eye): significant positive effects
- effect on ocular discomfort (subjects with dry eye): significant positive effects
